According to US7163698B2, “Controlled drug delivery system using the conjugation of drug to biodegradable polyester” (priority 1998, dated 2007):
Where two headings read alike, the source gives them in different places.

Key:
[1] = tested on: human hepatoblastoma cell line (HepG2); assay: Cytotoxicity MTT assay; type: cell-based; conditions: HepG2, 72 hrs
Method: Cytotoxicities of doxorubicin and its PLGA oligomer conjugates released from nanoparticles were determined against human hepatoblastoma cell line (HepG2) obtained from Korea Research Institute of Bioscience and Biotechnology. Free doxorubicin and the released fraction from nanoparticles for 19 days incubation were used for determining the inhibition of cell growth using a tetrazolium dye (MTT) assay according to the previously established method [R. I. Freshney, Measurement of Viability and Cytotoxicity, Chapter 19 in Culture of Animal Cells, Third Edition., Wiley-Liss Inc., New York, 1994, pp. 287–307]. Dulbecco's modification of Eagle's MEM (DMEM) was used as a major cell growth medium and a humidified atmosphere (5% CO2) was maintained for cell culture. HepG2 cells harvested in a logarithmic growth phase were seeded on 96 wells at a cell density of 5×10^3 cells/ml. After incubating the cells in a logarithmic phase with various concentrations of free doxorubicin and the released fraction for 72 hrs, the MTT assay was performed and the percentage of cell viability was then determined.

mouse EL4 thymoma cells = conditions: 240 μg/kg s.c. daily during 12 days, C57BL16 mice
Method: Antitumor activity against solid tumor of free doxorubicin, free PLGA, doxorubicin encapsulated in nanoparticles and doxorubicin conjugated with nanoparticles was evaluated with mouse EL4 thymoma cells. EL4 Cells (2×10^4 cells in 0.1 ml of PBS pH 7.4 buffer) were transplanted into C57BL16 female mice (10 weeks old) subcutaneously on day 0 and drug injection started on day 10, when tumor diameter reached approximately 2 mm.
The mice were divided into five different groups, each group consisting of 6 mice. The first group, control group, was s.c. injected 100 μl PBS pH 7.4 daily during 12 days and the second group free doxorubicin (240 μg/kg body weight). However, the third group was s.c. injected placebo microsphere daily in the first two days, the fourth group nanoparticle conjugated with doxorubicin (2.4 mg/kg body weight) and the fifth group, doxorubicin encapsulated in nanoparticle (1.2 mg/kg body weight).

[2] = tested on: human hepatoblastoma cell line (HepG2); conditions: literature value; read-out: reported IC50; cited from earlier work
[3] = with polyester polymer carrier; cited from earlier work

Compound	IC50 [1]	antitumor activity (tumor diameter) (mouse EL4 thymoma cells)	IC50 [2]	initial burst effects [3]
COc1cccc2c1C(=O)c1c(O)c3c(c(O)c1C2=O)C[C@@](O)(C(=O)CO)C[C@@H]3O[C@H]1C[C@H](N)[C@H](O)[C@H](C)O1 [free doxorubicin, doxorubicin]	8.9 µM	significant tumor growth inhibition	7.3 µM	–
gentamycin	–	–	–	over 50%
